Measurements as given in patent US20190084939A1, “ANALOGS OF FEXARAMINE AND METHODS OF MAKING AND USING” (Salk Institute for Biological Studies, priority 2014, published 2019).
“Also recorded” adds a separate entry of the source.

What was measured:
Format in all cases: in vivo
[1] = tested on: diet-induced obesity (DIO) mice; experiment: chronic PO fexaramine in diet-induced obesity (DIO) mice; conditions: for glucose tolerance and insulin sensitivity (GTT, ITT): PO 5 weeks
Method: FIGS. 2A-2G are graphs illustrating the reduction of diet-induced obesity and improvement in metabolic homeostasis with fexaramine. […] Data represent the mean±STD. Statistical analysis was performed with the Student's t test (*p<0.05, **p<0.01).
The physiological effects of fexaramine in established obesity (diet-induced obesity, DIO) models were evaluated. […]

FXR-null mice = experiment: chronic PO fexaramine in HFD fed FXR-null mice; conditions: 100 mg/kg 5 week with HFD
Method: Data represent the mean±SD. Statistical analysis was performed with the Student's t test. *p<0.05, **p<0.01.
Therefore, glucose tolerance tests (GTTs) and insulin tolerance tests (ITTs) were performed to determine if glucose homeostasis was improved in fexaramine-treated DIO mice.

[2] = tested on: C57BL/6J mice with intragastric ethanol feeding; experiment: alcoholic liver disease, Tsukamoto-French mouse model; conditions: ethanol feeding 3 weeks; 100 mg/kg/day oral gavage
Method: FIGS. 44A-44C are a (A) digital image of histology images of the liver and (B) and (C) bar graphs showing that administration of fexaramine can protect the liver from alcoholic liver disease, for example by decreasing fat in the liver, liver enzyme ALT and triglycerides (TG). C57BL/6J mice, fed an isocaloric diet or ethanol through continuous intragastric feeding for 3 weeks, were co-administered Fexaramine (100 mg/kg/day oral gavage) or vehicle. (A) Histological liver sections from ethanol fed mice after vehicle or fexaramine treatment. (B) Bar graph of serum alanine aminotransferase (ALT) levels in vehicle and fexaramine treated mice after 3 weeks of an ethanol diet (C) Liver triglyceride levels in vehicle and fexaramine treated mice after 3 weeks of an ethanol or isocaloric (control) diet.
The Tsukamoto-French mouse model, which involves continuous intragastric feeding of isocaloric diet or ethanol for 3 weeks, was used. C57BL/6J mice were co-administered vehicle or fexaramine by oral gavage (100 mg/kg/day). Mice were sacrificed after treatment and conjugated and unconjugated bile acid levels measured in serum and liver by liquid chromatography/mass spectrometry.

COC(=O)/C=C/c1cccc(N(Cc2ccc(-c3ccc(N(C)C)cc3)cc2)C(=O)C2CCCCC2)c1 [Fexaramine, fexaramine]
BAT expression of ERRγ, PGC-1α, PGC-1β and target genes ([1]; DIO mice): induction
PKA activity in BAT ([1]; DIO mice): increased PKA activity
accumulation of lipid vesicles in brown adipose tissue (BAT) ([1]; DIO mice): markedly reduced
activity (ambulatory counts) ([1]; DIO mice): more active than control mice
bile acid pool size ([1]; DIO mice): reducing
brown fat-like signature genes and respiratory capacity of stromal vascular fraction of inguinal adipose tissue ([1]; DIO mice): increased
circulating FGF15 ([1]; DIO mice): increase
expression of TNFα, MCP-1, IL-1α and F4/80 in visceral and brown adipose depots ([1]; DIO mice): reduced
fraction of lithocholic acid in circulating bile acids ([1]; DIO mice): increasing
fraction of taurocholic acid in circulating bile acids ([1]; DIO mice): decreasing
levels of IKK-ε and TBK1 in adipose tissue ([1]; DIO mice): reduced levels
liver lipid droplets (histology) ([1]; DIO mice): reduction in lipid droplets
mTORC1 pathway, S6K phosphorylation in gonadal WAT ([1]; DIO mice): reduced S6K phosphorylation
phosphorylation level of p38 in BAT ([1]; DIO mice): increased
ratio of unconjugated to conjugated cholic acid ([1]; DIO mice): remarkably increased
respiratory exchange ratio ([1]; DIO mice): No changes
serum alanine aminotransferase (ALT) levels ([1]; DIO mice): decreased
serum lactate levels ([1]; DIO mice): significantly decreased
glucose, insulin, leptin, cholesterol and resistin levels ([1]; DIO mice, 100 mg/kg PO 5 weeks): reduced
increase of core body temperature ([1]; DIO mice, 100 mg/kg PO 5 weeks): approximately 1.5 °C
overall fat mass (MRI) ([1]; DIO mice, 100 mg/kg PO 5 weeks): reduced overall fat mass
serum inflammatory cytokines TNFα, IL-1α, IL-1β, IL-17 and MCP-1 ([1]; DIO mice, 100 mg/kg PO 5 weeks): markedly decreased
weight gain ([1]; DIO mice, 100 mg/kg PO 5 weeks): prevented weight gain
wet weights of subcutaneous and visceral adipose depots ([1]; DIO mice, 100 mg/kg PO 5 weeks): significant reductions
prevention of weight gain over doses ([1]; DIO mice, 10, 50 or 100 mg/kg PO 5 weeks): dose-dependent manner
glucose tolerance and insulin sensitivity (GTT, ITT) ([1]; DIO mice): improved glucose clearance; also recorded: improved insulin sensitivity
glucose tolerance and insulin sensitivity (GTT, ITT) ([1]; DIO mice, listed as Fex): dose-dependent improvements
FGF15 expression in ileum ([1]; DIO mice, RNA-Seq): dramatically upregulated
OXPHOS gene changes in inguinal, gonadal and brown adipose depots ([1]; DIO mice, RNA-sequencing): selectively enhance OXPHOS activity only in BAT
HSL phosphorylation and serum levels of free fatty acids ([1]; DIO mice, chronic treatment): pronounced increase
cross-sectional area of adipocytes in visceral depots ([1]; DIO mice, chronic treatment): markedly reduced
expression of mucosal defense genes Occludin and Muc2 ([1]; DIO mice, chronic treatment): increased expression
hepatic CYP7A1 expression (mRNA and protein) ([1]; DIO mice, chronic treatment): significantly repressed
hepatic expression of CYP8B1 and CYP27A1 ([1]; DIO mice, chronic treatment): not affected
hepatic expression of gluconeogenic and lipogenic genes ([1]; DIO mice, chronic treatment): reduced
hepatic triglycerides ([1]; DIO mice, chronic treatment): marked decrease
liver FXR target genes SHP and BSEP ([1]; DIO mice, chronic treatment): not altered
serum catecholamine levels and β3-adrenergic receptor expression ([1]; DIO mice, chronic treatment): increased
weight gain at the highest dose ([1]; DIO mice, highest dose): almost completely abrogated
abundance of multi-locular, UCP1-expressing adipocytes in inguinal adipose tissue ([1]; DIO mice, immunohistochemistry): substantial increase
respiratory exchange ratio ([1]; DIO mice, listed as Fex): similar
serum lactate levels ([1]; DIO mice, listed as Fex): significantly reduced
food intake ([1]; DIO mice, versus vehicle): not attributable to difference in food intake
carbon dioxide production (VCO2) ([1]; DIO mice, weight-matched): exhaled more carbon dioxide
oxygen consumption (VO2) ([1]; DIO mice, weight-matched): consistently higher
intestinal toxicity (histology of ileum and colon) ([1]; mouse, in vivo, po): no signs of intestinal toxicity
Fex-induced changes in gene expression and metabolic homeostasis (FXR-null mice): abrogated
hepatic steatosis [2]: decreasing hepatic steatosis
serum levels of alanine aminotransferase (ALT) [2]: decreased
